This is an account of results in BindingDB's records for doi:10.1021/jm000317+ (Virginia Commonwealth University, 2001).

A short description of the experiment: Ki value determined against Sigma opioid receptor type 2 using [3H]DTG(5 nM) with 1uM dextrallorphan to mask sigma1 binding.

SMILES strings stand for the structures.

The term Ki denotes the equilibrium dissociation constant of an inhibitor or competing ligand from its target. Lower therefore signals higher affinity.

Turning to `C=CCCCN1CC[C@]2(C)c3cc(O)ccc3CC1C2C` (some centres not stated) [6,11-Dimethyl-3-pent-4-enyl-1,2,3,4,5,6-hexahydro-2,6-methano-benzo[d]azocin-8-ol], the Ki worked out at 2.5 µM. The value for `CC1C2Cc3ccc(O)cc3[C@@]1(C)CCN2CCCCCC#N` (some centres not stated) [6-(8-Hydroxy-6,11-dimethyl-1,2,5,6-tetrahydro-4H-2,6-methano-benzo[d]azocin-3-yl)-hexanenitrile] was 5.7 µM; that for `CC1C2Cc3ccc(O)cc3[C@@]1(C)CCN2CC#N` (some centres not stated) [(8-Hydroxy-6,11-dimethyl-1,2,5,6-tetrahydro-4H-2,6-methano-benzo[d]azocin-3-yl)-acetonitrile] was 93 µM; that for `CC1C2Cc3ccc(O)cc3[C@@]1(C)CCN2CCCCCCC#N` (some centres not stated) [7-(8-Hydroxy-6,11-dimethyl-1,2,5,6-tetrahydro-4H-2,6-methano-benzo[d]azocin-3-yl)-heptanenitrile] was 1.9 µM.

Take `C#CCCCN1CC[C@]2(C)c3cc(O)ccc3CC1C2C` (some centres not stated) [6,11-Dimethyl-3-pent-4-ynyl-1,2,3,4,5,6-hexahydro-2,6-methano-benzo[d]azocin-8-ol]: the Ki is 3.5 µM.

Turning to `CC1C2Cc3ccc(O)cc3[C@@]1(C)CCN2CCC#N` (some centres not stated) [3-(8-Hydroxy-6,11-dimethyl-1,2,5,6-tetrahydro-4H-2,6-methano-benzo[d]azocin-3-yl)-propionitrile], the Ki is over 100 µM. The value for `C=CCN1CC[C@]2(C)c3cc(O)ccc3CC1C2C` (some centres not stated) [3-Allyl-6,11-dimethyl-1,2,3,4,5,6-hexahydro-2,6-methano-benzo[d]azocin-8-ol] was 27 µM; that for `C=CCCN1CC[C@]2(C)c3cc(O)ccc3CC1C2C` (some centres not stated) [3-But-3-enyl-6,11-dimethyl-1,2,3,4,5,6-hexahydro-2,6-methano-benzo[d]azocin-8-ol] was 7.6 µM; that for `C=CCCCCN1CC[C@]2(C)c3cc(O)ccc3CC1C2C` (some centres not stated) [3-Hex-5-enyl-6,11-dimethyl-1,2,3,4,5,6-hexahydro-2,6-methano-benzo[d]azocin-8-ol] was 0.76 µM. For `CC1C2Cc3ccc(O)cc3[C@@]1(C)CCN2CCCCC#N` (some centres not stated) [5-(8-Hydroxy-6,11-dimethyl-1,2,5,6-tetrahydro-4H-2,6-methano-benzo[d]azocin-3-yl)-pentanenitrile] the value was 13 µM; for `CC1C2Cc3ccc(O)cc3[C@@]1(C)CCN2CCCC#N` (some centres not stated) [4-(8-Hydroxy-6,11-dimethyl-1,2,5,6-tetrahydro-4H-2,6-methano-benzo[d]azocin-3-yl)-butyronitrile], 34 µM. For `C#CCCN1CC[C@]2(C)c3cc(O)ccc3CC1C2C` (some centres not stated) [3-But-3-ynyl-6,11-dimethyl-1,2,3,4,5,6-hexahydro-2,6-methano-benzo[d]azocin-8-ol] the value was 15 µM.
